Results on 14 molecules are retold here after PMC4200789, “Design, Synthesis and Biological Evaluation of Sulfamide and Triazole Benzodiazepines as Novel p53-MDM2 Inhibitors” (International Journal of Molecular Sciences, 2014).

Data set [1] deals with MDM2 binding domain (1–118) / PMDM6-F peptide (p53-MDM2) (Homo sapiens, UniProt Q00987). Briefly: fluorescence polarization (FP) p53-MDM2 binding assay. The method, then:
A well-established fluorescence polarization (FP) binding assay was performed to measure the inhibitory activity (Ki) of designed compounds. […] The two phenyl rings of (R)-7c were located in the Phe19 and Trp23 pockets respectively and the propargyl group was partly inserted into the Leu26 pocket.
The dose-dependent binding experiments were carried out with serial dilution in DMSO of compounds. […] The Ki values were determined from a plot using nonlinear least-squares analysis. And curve fitting was performed using GraphPad Prism software.
On the technique in general: Fluorescence polarisation rises when a labelled molecule tumbles more slowly, as on binding a larger partner.

Data set [2] concerns U-2 OS (wild-type p53). Briefly: in vitro antitumor activity, MTT. Type of data set: cell-based, human. The conditions noted are these: for IC50: Homo sapiens, U2OS, 72 h, read-out: IC50 U-2 OS (wt-p53). The method, then:
(§1) To investigate the in vitro antiproliferative activity of the designed p53-MDM2 inhibitors, four human tumor cell lines, namely U-2 OS (wild-type p53), A549 (wild-type p53), Saos-2 (p53 null), and NCI-H1299 (p53 null), were chosen for assaying.
(§2) The cellular growth inhibitory activity was determined using four human cancer cell lines [U-2 OS (wild-type p53), A549 (wild-type p53), Saos-2 (p53 null), and NCI-H1299 (p53 null)]. 5–6 × 10^4 cells per well were plated in 96-well plates. After culturing for 24 h, test compounds were added onto triplicate wells with different concentrations and 0.1% DMSO for control. After 72 h of incubation, 20 μL of MTT (3-[4,5-dimethylthiazol-2-yl]-2,5-diphenyltetrazoliumbromide) solution (5 mg/mL) was added to each well, and after the samples were shaken for 1min the plate was incubated further for 4 h at 37 °C. […] were dissolved with 100 μL of DMSO. The absorbance (OD) was quantitated with microplate using Biotek Synergy H2 at 570 nm (BioTek, Winooski, VT, USA). Wells containing no drugs were used as blanks.

In data set [3] the test system is NCI-H1299 (p53 null). Briefly: in vitro antitumor activity, MTT. The conditions noted are these: Homo sapiens, read-out: IC50 NCI-H1299 (p53 null). The class given is cell-based. On the procedure:
as §1, §2

For data set [4], the system named is A549 (wild-type p53). Briefly: in vitro antitumor activity, MTT. The class given is cell-based. The conditions noted are these: Homo sapiens, read-out: IC50 A549 (wt-p53). On the procedure:
as §1, §2

In data set [5] the test system is Saos-2 (p53 null). Description: in vitro antitumor activity, MTT. The class given is cell-based. The conditions noted are these: Homo sapiens, read-out: IC50 Saos-2 (p53 null). The method, then:
as §1, §2

In data set [6] the test system is four human tumor cell lines (U-2 OS, A549, Saos-2, NCI-H1299). Briefly: in vitro antitumor activity, MTT, four cell lines together. The class given is cell-based. On the procedure:
as §1, §2

On the set-up of data set [7]: method as in PMID 16630722, PMID 16600594, PMID 16290148. The settings on record: cited from earlier work.
[8] abbreviates: FP binding assay, MDM2 (1–118) 10 nM, PMDM6-F 10 nM, read-out: Ki.

Molecules are shown by their SMILES. Read-outs that look alike come from different tables or passages of the source. Bounds are passed on as bounds.

Chain of MDM2 binding domain (1–118) / PMDM6-F peptide (p53-MDM2) (Q00987 1-118): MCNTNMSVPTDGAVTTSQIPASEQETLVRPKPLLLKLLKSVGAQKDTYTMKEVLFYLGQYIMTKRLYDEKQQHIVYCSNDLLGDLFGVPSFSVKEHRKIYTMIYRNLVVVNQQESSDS

In the case of `C#CCN1C(=O)C(c2ccc(Cl)cc2)N(CC#C)S(=O)(=O)c2ccccc21` (stereo not drawn) [Compound 7a, 3-(4-Chlorophenyl)-2,5-di(prop-2-yn-1-yl)-2,3-dihydrobenzo[f][1,2,5]thiadiazepin-4(5H)-one 1,1-dioxide], the inhibition constant (Ki) in data set [1] (setting [8]) worked out at 0.43 µM. Also, the IC50 was more than 100 µM in data set [2] (MTT); more than 100 µM in data set [3] (NCI-H1299, MTT, 72 h); more than 100 µM in data set [4] (A549, MTT, 72 h); more than 100 µM in data set [5] (SAOS-2, MTT, 72 h).
As to `C#CCN1C(c2ccc(Cl)cc2)C(=O)N(C=C=C)c2ccccc2S1(=O)=O` (stereo not drawn) [Compound 7b, 3-(4-Chlorophenyl)-2-(prop-2-yn-1-yl)-5-(propa-1,2-dien-1-yl)-2,3-dihydrobenzo[f][1,2,5]thiadiazepin-4(5H)-one 1,1-dioxide], in data set [1] (setting [8]), the inhibition constant Ki was 0.36 µM. The 50% inhibitory concentration (IC50) in data set [2] (MTT) was more than 100 µM; in data set [3] (NCI-H1299, MTT, 72 h) it was more than 100 µM; in data set [4] (A549, MTT, 72 h), more than 100 µM; in data set [5] (SAOS-2, MTT, 72 h), more than 100 µM.
For the molecule `C#CCN1C(c2ccc(Cl)cc2)C(=O)Nc2ccccc2S1(=O)=O` (stereo not drawn) [Compound 7c, 3-(4-Chlorophenyl)-2-(prop-2-yn-1-yl)-2,3-dihydrobenzo[f][1,2,5]thiadiazepin-4(5H)-one 1,1-dioxide], the inhibition constant Ki in data set [1] (setting [8]) was 0.26 µM. Besides, the IC50 was more than 100 µM in data set [2] (MTT); more than 100 µM in data set [3] (NCI-H1299, MTT, 72 h); more than 100 µM in data set [4] (A549, MTT, 72 h); more than 100 µM in data set [5] (SAOS-2, MTT, 72 h).
Regarding `N#CCN1C(c2ccc(Cl)cc2)C(=O)Nc2ccccc2S1(=O)=O` (stereo not drawn) [Compound 7d, 2-(3-(4-Chlorophenyl)-1,1-dioxido-4-oxo-4,5-dihydrobenzo[f][1,2,5]thiadiazepin-2(3H)-yl)acetonitrile], the inhibition constant Ki in data set [1] (setting [8]) is more than 100 µM. Also, the IC50 in data set [2] (MTT) was more than 100 µM; in data set [3] (NCI-H1299, MTT, 72 h) it was more than 100 µM; in data set [4] (A549, MTT, 72 h) it was 92.3 µM; in data set [5] (SAOS-2, MTT, 72 h), more than 100 µM.
On to `O=C1Nc2ccccc2S(=O)(=O)N(Cc2cccc(F)c2)C1c1ccc(Cl)cc1` (stereo not drawn) [Compound 7e, 3-(4-Chlorophenyl)-2-(3-fluorobenzyl)-2,3-dihydrobenzo[f][1,2,5]thiadiazepin-4(5H)-one 1,1-dioxide], for which the Ki in data set [1] (setting [8]) was more than 100 µM. Also, the 50% inhibitory concentration (IC50) in data set [2] (MTT) is 90.5 µM; in data set [3] (NCI-H1299, MTT, 72 h), more than 100 µM; in data set [4] (A549, MTT, 72 h) it was more than 100 µM; in data set [5] (SAOS-2, MTT, 72 h) it was more than 100 µM.
Take `O=C1Nc2ccccc2S(=O)(=O)N(Cc2c(F)cccc2F)C1c1ccc(Cl)cc1` (stereo not drawn) [Compound 7f, 3-(4-Chlorophenyl)-2-(2,6-difluorobenzyl)-2,3-dihydrobenzo[f][1,2,5]thiadiazepin-4(5H)-one 1,1-dioxide]: the inhibitory constant (Ki) in data set [1] (setting [8]) worked out at 78 µM. The concentration for half-maximal inhibition (IC50) in data set [2] (MTT) was more than 100 µM; in data set [3] (NCI-H1299, MTT, 72 h) it was more than 100 µM; in data set [4] (A549, MTT, 72 h), more than 100 µM; in data set [5] (SAOS-2, MTT, 72 h), more than 100 µM.
Regarding `O=C1Nc2ccccc2S(=O)(=O)N(Cc2ccccc2)C1c1ccc(Cl)cc1` (stereo not drawn) [Compound 7g, 2-Benzyl-3-(4-chlorophenyl)-2,3-dihydrobenzo[f][1,2,5]thiadiazepin-4(5H)-one 1,1-dioxide], the Ki in data set [1] (setting [8]) came to 8.14 µM. The half-inhibitory concentration (IC50) in data set [2] (MTT) was more than 100 µM; in data set [3] (NCI-H1299, MTT, 72 h), more than 100 µM; in data set [4] (A549, MTT, 72 h) it was more than 100 µM; in data set [5] (SAOS-2, MTT, 72 h), more than 100 µM.
In the case of `O=C1Nc2ccccc2S(=O)(=O)N=C1c1ccc(Cl)cc1` [Compound 8, 3-(4-Chlorophenyl)benzo[f][1,2,5]thiadiazepin-4(5H)-one 1,1-dioxide], the “p53-MDM2 inhibitory activity (in words)” value in data set [1] (FP binding assay) was “dramatic decrease of the inhibitory activity”. Besides, in data set [1] (setting [8]), the Ki was determined as 11.9 µM. For the same molecule, the 50% inhibitory concentration (IC50) is more than 100 µM in data set [2] (MTT); more than 100 µM in data set [3] (NCI-H1299, MTT, 72 h); more than 100 µM in data set [4] (A549, MTT, 72 h); more than 100 µM in data set [5] (SAOS-2, MTT, 72 h).
In turn, `O=C1Nc2ccc(Cl)cc2C(c2ccccc2)=NC1c1ccc(Cl)cc1` (stereo not drawn) [Compound 13, 7-Chloro-3-(4-chlorophenyl)-5-phenyl-1H-benzo[e][1,4]diazepin-2(3H)-one] had a Ki in data set [1] of 0.2 µM. The IC50 amounted to 3.12 µM in data set [2]; 6.11 µM in data set [3] (NCI-H1299, 72 h); 9.16 µM in data set [4] (A549, 72 h); 3.01 µM in data set [5] (SAOS-2, 72 h).
Taken in the same sequence, the figures for `S=C1Nc2ccc(Cl)cc2C(c2ccccc2)=NC1c1ccc(Cl)cc1` (stereo not drawn) [Compound 14, 7-Chloro-3-(4-chlorophenyl)-5-phenyl-1H-benzo[e][1,4]diazepine-2(3H)-thione] were 8.76 µM, 5.31 µM, 15.6 µM, 24.1 µM and 3.67 µM.
In turn, `Clc1ccc(C2N=C(c3ccccc3)c3cc(Cl)ccc3-n3cnnc32)cc1` (stereo not drawn) [Compound 16, 8-Chloro-4-(4-chlorophenyl)-6-phenyl-4H-benzo[f][1,2,4]] yielded a Ki in data set [1] of 1.22 µM. For the same molecule, the IC50 is 4.17 µM in data set [2]; 5.5 µM in data set [3] (NCI-H1299, 72 h); 7.62 µM in data set [4] (A549, 72 h); 3.55 µM in data set [5] (SAOS-2, 72 h). Further, the “antiproliferative activity against U-2 OS relative to nutlin-3” value in data set [2] (better than nutlin-3) is recorded as “about 4 fold”.
The molecule `Clc1ccc(C2NC(c3ccccc3)c3cc(Cl)ccc3-n3cnnc32)cc1` (stereo not drawn) [Compound 17, 8-Chloro-4-(4-chlorophenyl)-6-phenyl-5,6-dihydro-4H-benzo[f][1,2,4]triazolo[4,3-a][1,4]diazepine] registered an inhibition constant (Ki) in data set [1] of 2.8 µM. The half-maximal inhibitory concentration (IC50) in data set [2] was found to be 34 µM; in data set [3] (NCI-H1299, 72 h) it was 34.6 µM; in data set [4] (A549, 72 h) it was 26.8 µM; in data set [5] (SAOS-2, 72 h) it was 24.8 µM. The “in vitro antitumor activity (in words)” value in data set [6] was “poor activity”.
For `COc1ccc(C2=N[C@@H](c3ccc(Cl)cc3)[C@@H](c3ccc(Cl)cc3)N2C(=O)N2CCNC(=O)C2)c(OC(C)C)c1` [Nutlin-3, reference compound], in data set [2], the 50% inhibitory concentration (IC50) is 16.3 µM.
Consider `O=C(O)[C@H](c1ccc(Cl)cc1)N1C(=O)c2cc(I)ccc2NC(=O)[C@@H]1c1ccc(Cl)cc1` [TDP222669], for which, in data set [7], the bioavailability result is “limited bioavailability” and the in vivo clearance entry is “rapid in vivo clearance”.

Broadly, the Ki is the dissociation constant of the complex between target and ligand, obtained from inhibition or displacement. As a reminder, the IC50 is the point on the concentration scale where inhibition reaches its midpoint.
